SMILES strings stand for the structures.

One data set concerns the target T1, AR (Rattus norvegicus, UniProt P15207).
T1 sequence (P15207 1-902): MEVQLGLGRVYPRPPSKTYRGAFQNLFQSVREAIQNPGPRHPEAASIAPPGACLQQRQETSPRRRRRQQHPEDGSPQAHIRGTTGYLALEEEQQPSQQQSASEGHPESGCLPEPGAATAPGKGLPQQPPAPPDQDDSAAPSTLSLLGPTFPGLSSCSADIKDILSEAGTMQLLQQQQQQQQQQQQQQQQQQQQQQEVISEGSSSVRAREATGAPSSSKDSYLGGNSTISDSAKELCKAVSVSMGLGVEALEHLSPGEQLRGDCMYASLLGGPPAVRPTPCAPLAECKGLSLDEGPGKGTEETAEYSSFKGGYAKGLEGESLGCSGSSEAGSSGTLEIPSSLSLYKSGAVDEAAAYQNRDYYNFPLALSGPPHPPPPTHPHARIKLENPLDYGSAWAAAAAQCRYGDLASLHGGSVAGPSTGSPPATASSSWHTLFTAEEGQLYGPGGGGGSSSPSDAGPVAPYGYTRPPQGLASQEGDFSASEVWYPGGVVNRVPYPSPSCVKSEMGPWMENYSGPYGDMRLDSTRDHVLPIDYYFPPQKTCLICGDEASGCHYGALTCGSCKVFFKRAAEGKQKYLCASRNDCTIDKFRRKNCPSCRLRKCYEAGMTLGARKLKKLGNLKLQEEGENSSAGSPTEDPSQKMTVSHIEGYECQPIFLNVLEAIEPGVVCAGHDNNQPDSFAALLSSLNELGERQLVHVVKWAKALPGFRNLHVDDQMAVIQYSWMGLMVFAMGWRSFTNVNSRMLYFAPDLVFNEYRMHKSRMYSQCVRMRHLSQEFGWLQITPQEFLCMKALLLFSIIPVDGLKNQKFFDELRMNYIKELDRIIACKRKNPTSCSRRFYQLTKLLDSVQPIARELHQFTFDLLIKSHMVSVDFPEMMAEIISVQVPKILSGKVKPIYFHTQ
Put plainly: AR agonism and antagonism in immature male rats, 3-day assay, relative organ weights. The method, then:
The title compound of Example 3, abbreviated here as compound A, was further studied in in vivo experiment. The agonism and antagonism of the compound with subcutaneous dosing was tested in immature male Spraque Dawley rat 3-day assay by analyzing the relative weights of ventral prostate, seminal vesicle, and levator ani-muscle. Testosterone propionate was used as a reference compound.
Testosterone propionate (abbreviated here TP) and compound A were first dissolved into DMSO and then into the vehicle sesame oil. Sprague-Dawley untreated male rats (18-19 days old) weighing about 50 g were used in the experiment. Rats were weighed and randomly distributed into five groups, with 5 animals per group (Table 1). Compound A (doses 2 and 20 mg/kg) and testosterone propionate (dose 5 mg/kg) were given subcutaneously (s.c.) into the neck/back of the animals at a constant volume of 100 microl dosing solution/animal/day. The animals were dosed once daily for three days, and clinical signs were recorded during dosing. At the end of the study, animals were weighed and anaesthetised by CO2 asphyxiation. Ventral prostate, seminal vesicles, and levator ani-muscle were dissected out, chilled, and weighed. For statistical analysis, the weights of all organs were normalized to body weights, and analyzed for statistical significant difference by single-factor ANOVA.
In the Figure, “a” means agonism, p<0.01 compared to vehicle group, “b” means antagonism, p<0.05 compared to testosterone group, bars represent mean±SEM.

The next data set deals with T2, androgen receptor (AR) (Rattus norvegicus, UniProt P15207).
T2 construct: Ventral prostates were obtained form rats castrated 24 h prior to sacrifice; from tissue; host or cells: rat ventral prostate cytosol (castrated rats, charcoal-treated)
T2 sequence (P15207 1-902): T1 sequence (P15207 1-902)
The data set is described as follows: AR binding assay, competition with [3H]-mibolerone binding in rat ventral prostate cytosol. The settings on record: 1 nM [3H]-mibolerone, overnight at 0° C. The method, then:
Ventral prostates were obtained form rats castrated 24 h prior to sacrifice. Fresh prostate was minced and washed with Buffer A (Schilling and Liao, Prostate, 5:581-588, 1984). The minces were then homogenized in 3× volume of Buffer A containing protease inhibitors (Complete, Mini, EDTA-free Roche). The homogenate was centrifuged at 30000 g for 30 min. The resultant supernatants were treated with 1×volume of dextran-coated charcoal solution (12.5 g activated charcoal, 12.5 g dextran per liter of buffer A) to remove endogenous steroids. The samples were incubated for 5 min and centrifuged at 16000 g for 10 min. Aliquots of the charcoal-treated cytosol were taken for androgen receptor assays. All procedures were carried out at 0-4° C.
Cytosol androgen receptor concentration was determined as described (Isomaa et al., Endocrinology, 111: 833-843, 1982) with minor modifications. Cytosol preparations were prepared as described above, and bound and free steroids were separated by treatment with an equal volume of dextran-charcoal suspension for 5 min at 4° C. followed by centrifugation at 16000 g for 10 min. Bound radioactivity was determined by counting supernatant fractions in 1 ml of OptiPhase HiSafe3 or OptiPhase Supermix (PerkinElmer).
Cytosol preparations were labelled with 1 nM [^3H]-mibolerone overnight at 0° C. (total). To determine AR binding activity of the compounds of the present invention (test compounds), the ability of test compounds to compete with [^3H]7α,17α-dimethyl-17β-hydroxy-4-estren-3-one ([^3H]-mibolerone) binding was studied. 1 nM [^3H]-mibolerone and test compounds in two concentrations (0.2 and 2 uM) were incubated overnight at 0° C. To determine non-specific binding, parallel incubations were carried out using 1 nM concentration [^3H]-mibolerone with 500-fold molar excess of unlabelled testosterone. Two to four replicates were used for each sample. After incubation, bound and free steroids were separated as described above and bound radioactivity was determined. The ability of the test compounds to bind AR is reported as reduction in bound radioactivity obtained with 1 nM [^3H]-mibolerone. The results (% inhibition) were calculated as: % inhibition=100−(100×(averagetest compound/averagetotal)).

[1] abbreviates: 20 mg/kg s.c. once daily for three days, immature male rat.
The mark [2] stands for this setting: 5 mg/kg s.c. once daily for three days, immature male rat.

In the case of `CC(=O)Nc1ccc(OC[C@](C)(O)C(=O)Nc2ccc([N+](=O)[O-])c(C)c2)cc1` [Example 3, (2S)-3-(4-Acetylaminophenoxy)-2-hydroxy-2-methyl-N-(3-methyl-4-nitrophenyl)propionamide], at AR (setting [1]), the “relative weight of levator ani-muscle” value was “clearly increased” and the “relative weight of the prostate” value is given as “only minimally”. Further, the “antagonistic activity in seminal vesicle” value on AR (TP 5 mg/kg + compound A 20 mg/kg s.c., p<0.05 compared to testosterone group) was “significant antagonistic activity”. Further, the “androgenic and anabolic activity” value at AR (s.c. 2 and 20 mg/kg, immature male rat, FIG. 1) was “shows androgenic and anabolic activity”. The “effect on the body weights” value on AR (s.c. once daily for three days, immature male rat, data not shown) is given as “Neither testosterone propionate nor compound A had any effect”. The “tissue selectivity compared with testosterone propionate” value on AR (s.c., immature male rat) is reported as “showed tissue selectivity”. Moreover, on androgen receptor (AR) (test compound 0.2 μM), the inhibition at 0.2 µM is 103%. For the same molecule, the inhibition at 2 µM at androgen receptor (AR) (test compound 2.0 μM) is 115%.
Take `CCC(=O)O[C@H]1CC[C@H]2[C@@H]3CCC4=CC(=O)CC[C@]4(C)[C@H]3CC[C@]12C` [testosterone propionate, Testosterone propionate, reference compound]: on AR (setting [2]), the “relative weight of levator ani-muscle” value is “increased significantly”, the “relative weight of seminal vesicle” value is “increased significantly” and the “relative weight of ventral prostate” value is reported as “increased significantly”. Further, the “effect on the body weights” value on AR (rat, in vivo, sc) is recorded as “Neither testosterone propionate nor compound A had any effect”.
